Where two headings read alike, the source gives them in different places.
Experiments:
[1] = test system: MEFs infected with the four factors (Oct4, Sox2, Klf4 and c-Myc); assay type: cell-based, mouse
Procedure: FIG. 1(a) MEFs infected with the four factors (Oct4, Sox2, Klf4 and c-Myc) were treated with various chemicals for a week, the percentage of Oct4-GFP positive cells induced was measured through FACS analysis, and compared to infected MEFs without treatment or treated with DMSO (the solvent for Dexamethasone, SAHA and TSA). The chemicals used were: 5′-azaC (2 μM), dexamethasone (dex, 1 μM), 5′-azaC (2 μM) together with dexamethasone (1 μM), VPA (2 mM), SAHA (5 μM) and TSA (20 nM). n=4 for each treatment. For all figures in this study, standard deviations are indicated by error bars, and P values by two-tailed student t-test less than 0.05, 0.01 and 0.001 are indicated by one, two and three asterisks respectively.
To quantitate reprogramming efficiency, we established an assay based on Fluorescence-Activated Cell Sorting (FACS) analysis using an Oct4-GFP transgenic reporter, where the expression of the green fluorescent protein (GFP) is controlled by the promoter and enhancers of Oct4, a pluripotent marker gene^14.
MEFs were derived from e13.5 embryos hemizygous for the Oct4-GFP transgenic allele. Embryos were sexed by inspecting gonads for the pattern of Oct4-GFP expression. Gonads and internal organs were removed before processing the embryos for MEF isolation. To generate iPS cells that can be identified in mouse chimeras after blastocyst injection, we derived MEFs from e13.5 embryos that are hemizygous for Oct4-GFP and heterozygous for the Rosa26-lacZ reporter allele. MEFs were grown in DMEM supplemented with 10% FBS, L-glutamine, penicillin/streptoMycin, nonessential amino acids, and sodium pyruvate. MEFs in early passages (up to passage 5) were used for generation of iPS cells.
Moloney-based retroviral vector (pMXs) containing the murine complementary DNAs of Oct4, Sox2, c-Myc, and Klf4 were obtained from Addgene^1. These plasmids were co-transfected into 293T cells with packaging vectors (pUMVC and pCMV-VSVG), and viral supernatants were collected 48 hours post-transfection to infect MEFs. Two to three rounds of infection were performed during a 48 hour period. The first day after viral supernatants were removed was defined as 0 day post-infection. Infected MEFs were subsequently cultured in mouse ES cell media (Knockout DMEM supplemented with 15% Hyclone FBS, L-glutamine, penicillin/streptoMycin, nonessential amino acids, β-mercaptoethanol, and with 1000 U/ml LIF), and treated with small molecules or growth factors for a week starting from 1 or 2 days post-infection. […] All conditions were tested in quadruplicates.

[2] = test system: MEFs infected with the four factors (Oct4, Sox2, Klf4 and c-Myc); test: cells; assay type: cell-based, mouse; conditions: 4-factor infected MEFs

Molecule: CC(=O)O/N=C1/C(=C2/C(=O)Nc3cc(Br)ccc32)Nc2ccccc21 [BIO-Acetoxime]
- effect on reprogramming efficiency ([1]; 2 μM, 4-factor infected MEFs): no significant effect

Molecule: COc1cccc(-c2cc(=O)c3ccccc3o2)c1N [PD98059]
- effect on reprogramming efficiency ([2]; 40 μM): no significant effects

Molecule: O=C(CCCCCCC(=O)Nc1ccccc1)NO [SAHA, suberoylanilide hydroxamic acid]
- improvement over the control DMSO treatment ([1]; 5 μM, 4-factor infected MEFs): 10 fold
- percentage of GFP positive cells ([1]; 5 μM, 4-factor infected MEFs): approximately 0.198% (±0.102%)

Molecule: CC(/C=C/C(=O)NO)=C\[C@@H](C)C(=O)c1ccc(N(C)C)cc1 [TSA, trichostatin A]
- percentage of GFP positive cells ([1]; 20 nM, 4-factor infected MEFs): approximately 1.535% (±0.618%)

Molecule: N#CC(=C(/N)Sc1ccccc1N)/C(C#N)=C(\N)Sc1ccccc1N [U0126]
- effect on reprogramming efficiency [1]: no significant effects

Molecule: C[C@@H]1C[C@H]2[C@@H]3CCC4=CC(=O)C=C[C@]4(C)[C@@]3(F)[C@@H](O)C[C@]2(C)[C@@]1(O)C(=O)CO [dexamethasone]
- improvement of the effect of 5′-azaC when used in combination [1]: 2.6 fold
- effect on reprogramming efficiency ([1]; 1 μM alone, 4-factor infected MEFs): no significant effect

Molecule: Wnt3a
- effect on reprogramming efficiency ([2]; 100 ng/ml): no significant effect

B1: BMP4: recombinant human Bmp4 from Roche (protein, UniProt P12644 293-408, looked up)
Bone morphogenetic protein 4: SPKHHSQRARKKNKNCRRHSLYVDFSDVGWNDWIVAPPGYQAFYCHGDCPFPLADHLNSTNHAIVQTLVNSVNSSIPKACCVPTELSAISMLYLDEYDKVVLKNYQEMVVEGCGCR
- effect on reprogramming efficiency ([2]; 100 ng/ml): had no effect

— patent US20110014164A1, “EFFICIENT INDUCTION OF PLURIPOTENT STEM CELLS USING SMALL MOLECULE COMPOUNDS” (PRESIDENT AND FELLOWS OF HARVARD COLLEGE, priority 2008, published 2011)
